This is an account of results in paper PMC8457749, “Design, Synthesis, and Anticancer Activity Evaluation of Hybrids of Azoles and Barbituric Acids” (Iranian Journal of Pharmaceutical Research : IJPR, 2021).

One experiment has as its system HCT116 cancer cells. The arrangement: method as in PMID 30981113. The conditions noted are these: HCT116 cancer cells ref 11; read-out: IC50 anti-proliferative activity HCT116; cited from earlier work.
For a further experiment, the system named is HCT-116 cells. Nature of the experiment: MTT antiproliferative assay, HCT-116. The class given is cell-based, human. As for the experimental part:
(§1) The antiproliferative activity of the target compounds against the panel of three different human cancer cell lines, liver (BEL-7402), colorectal (HCT-116), and breast (MCF-7) cell lines was evaluated using a standard MTT-based colorimetric assay. All cell lines were obtained from the Key Laboratory of Natural Resources and Functional Molecules of the Changbai Mountain (Yanbian University) and maintained in Dulbecco’s modified Eagle’s medium (DMEM) and RPMI Media 1640 (RPMI1640), supplemented with 10% foetal bovine serum (FBS) at 37 °C in a humidified atmosphere containing 5% CO2.
(§2) The cells were plated in 96-well plates at appropriate densities to ensure exponential growth throughout the experimental period (9 × 10^3 cells per well) and then allowed to adhere for 24 h. the cells were then treated for 48 h with each compound. After 48 h of incubation, 10 μL of MTT solution was added to each well to a final concentration of 2 mg/mL. the plates were then incubated for a further 4 h. After incubation, the MTT solution was removed and 150 μL of DMSO was added to each well for coloration. The plates were shaken vigorously for 10 min at room temperature to ensure complete solubilisation. The optometric density (OD) was read on a microplate reader (EL × 800, BioTek, Highland Park, Winooski, VT, USA) at 492 nm, and the data were subsequently analysed. The percentage of cell growth inhibition was calculated from the following Equation:
(§3) Inhibitory rate (%) = [1 − (ODtreated − ODblank)/(ODcontrol − ODblank)] × 100%
(§4) To obtain the antiproliferative activity of compounds 3a-3s and 4a-4d, the compounds were selected in the same way with four serial concentrations (1, 10, 50 and 100 μM) of those compounds. The optometric density (OD) reading was then used to calculate the IC50.

Experiment [1] deals with BEL-7402 cells. Nature of the experiment: Apoptosis by flow cytometry (annexin V-FITC/PI). The format is cell-based, human. The conditions noted are these: 24 h. As for the experimental part: Apoptosis was detected using an Apoptosis Detection Kit (Invitrogen, Eugene, OR, USA). Briefly, BEL-7402 cells were cultured in 6-well plates (1.0 × 10^6 cells per well) and incubated at 37 °C for 12 h. Cells with exponential growth were then incubated with compound 3s at different concentrations (5 μM and 20 μM). Following 24 h of incubation, the cells were collected, washed twice with PBS and once with 1 × binding buffer, and then stained with 5 […] and […] (5 mg/mL) in 1 × binding buffer for 30 min at 20 °C in the dark. Apoptotic cells were enumerated using a FACSCalibur flow cytometer with Cell Quest software (Becton–Dickinso, Franklin Lakes, NJ, USA).

A further experiment has as its system MCF-7 cells. Nature of the experiment: MTT antiproliferative assay, MCF-7. The class given is cell-based, human. As for the experimental part:
as §1, §2, §3, §4

In experiment [2] the test system is BEL-7402 cells. As to the kind of experiment: MTT antiproliferative assay, BEL-7402. The format is cell-based, human. As for the experimental part: as §1, §2, §3, §4
For a further experiment, the system named is L02 cells. Nature of the experiment: Antiproliferative activity against normal cell line L02. The format is cell-based. The conditions noted are these: Homo sapiens, L02, read-out: L02 IC50. As for the experimental part: The lack of selective cytotoxicity is the main factor that restricts the dose of most conventional chemotherapeutic agents ([21]). […] Selectivity indexes between cancer cells and L02 cells were calculated.

Another experiment has as its system MCF-7 cell line. The arrangement: method as in earlier work. The conditions noted are these: cited from earlier work.
A further experiment deals with HCT116 cell line. The arrangement: method as in earlier work. The conditions noted are these: cited from earlier work.

On to `C=C1C(=O)[C@]23[C@H](O)[C@H]1CC[C@H]2[C@@]12CO[C@]3(O)[C@@H](O)[C@@H]1C(C)(C)CC[C@@H]2O` [oridonin], for which, in the experiment on HCT116 cancer cells, the IC50 is 6.84 µM.
With `O=C1NC(=O)C(=Cc2cn(-c3ccc(C(F)(F)F)cc3)nn2)C(=O)N1` [Compound 3s, 5-((1-(4-(trifluoromethyl)phenyl)-1H-1,2,3-triazol-4-yl)methylene)pyrimidine-2,4,6(1H,3H,5H)-trione], the inhibition at 100 µM in the experiment on HCT-116 cells (Homo sapiens, HCT-116, 48 h, read-out: Growth Inhibition at 100 μM (%) HCT-116) turned out to be 62.9 ± 1.9%; with MCF-7 cells (Homo sapiens, MCF7, 48 h, read-out: Growth Inhibition at 100 μM (%) MCF-7), 90.4 ± 5.3%; with BEL-7402 cells [2] (Homo sapiens, Bel-7402, 48 h, read-out: Growth Inhibition at 100 μM (%) BEL-7402), 95.3 ± 4.9%. Also, the IC50 in the experiment with HCT-116 cells (Homo sapiens, HCT-116, 48 h, read-out: IC50 HCT-116) was 21.5 ± 1.19 µM; with MCF-7 cells (Homo sapiens, MCF7, 48 h, read-out: IC50 MCF-7) it was 8.98 ± 0.99 µM; with BEL-7402 cells [2] (Homo sapiens, Bel-7402, 48 h, read-out: IC50 BEL-7402), 4.02 ± 0.5 µM; with L02 cells, 82.2 ± 4.8 µM. For the same compound, the “Selectivity index HCT-116” value in the experiment on HCT-116 cells (IC50 on normal cells (L02)/IC50 on tumor cells (HCT-116)) was 3.82. Further, the “early-stage apoptosis rate (LR)” value in the experiment on BEL-7402 cells [1] (5 μM) came to 1.33%; in the experiment with BEL-7402 cells [1] (20 μM), 3.37%. For the same compound, the figures for the “late-stage apoptosis rate (UR)” value in the experiment on BEL-7402 cells [1] (5 μM) and with BEL-7402 cells [1] (20 μM) were 4.94% and 35.78%, respectively. Moreover, in the experiment on BEL-7402 cells [1] (20 μM), the “dead cells (UL)” value was found to be 27.40%. Moreover, in the experiment on MCF-7 cells (IC50 on normal cells (L02)/IC50 on tumor cells (MCF-7)), the “Selectivity index MCF-7” value was determined as 9.15. The “Selectivity index BEL-7402” value with BEL-7402 cells [2] (IC50 on normal cells (L02)/IC50 on tumor cells (BEL-7402)) is 20.45.
As to `C=C1C(=O)[C@]23[C@H](OC(=O)c4cn(-c5ccc(OC)cc5)nn4)[C@H]1CC[C@H]2[C@@]12CO[C@]3(O)[C@@H](O)[C@@H]1C(C)(C)CC[C@@H]2O` [Compound C], in the experiment with HCT116 cancer cells, the IC50 is 1.94 µM.
For `CC1=NN=C(C)C1=NNc1sc2c(c1C(N)=O)CCCCC2` [D], the IC50 with MCF-7 cell line was 22.7 µM; in the experiment with HCT116 cell line, 31.1 µM.
